Experimental data taken from US20250026743A1, “HETEROARYL-LINKED ANALOGS AS MGLU5 NEGATIVE ALLOSTERIC MODULATORS AND METHODS OF MAKING AND USING THE SAME” (Vanderbilt University, priority 2021, published 2025).
Where two headings read alike, the source gives them in different places.

Target: T1, hmGlu5 (Homo sapiens, UniProt P41594)
T1 construct: expressed in transfected cells; host or cells: HEK 293A
Assay: mGlu5 Ca2+ flux assay in HEK 293A cells (negative allosteric modulation of glutamate EC80 response)
Format: cell-based
Conditions: for remaining activity at 30 µM: HEK293-A, read-out: hmGlu5 NAM Emin (%); for IC50: HEK 293A cells, Ca2+ flux, glutamate EC80, >10,000 = decrease without plateau, read-out: hmGlu5 NAM IC50
Protocol: HEK 293A cells stably expressing either rat or human mGlu5 were plated in black-walled, clear-bottomed, poly-D-lysine coated 384-well plates in 20 μL of assay medium (DMEM containing 10% dialyzed FBS, 20 mM HEPES, 100 units/mL penicillin/streptomycin plus 250 ng/mL Fungizone, and 1 mM sodium pyruvate) at a density of 20K cells/well. The cells were grown overnight at 37° C. in the presence of 5% CO2. The next day, medium was removed and the cells incubated with 20 μL of 2.3 μM Fluo-4, AM prepared as a 2.3 mM stock in DMSO and mixed in a 1:1 ratio with 10% (w/v) pluronic acid F-127 and diluted in assay buffer (Hank's balanced salt solution, 20 mM HEPES, and 2.5 mM probenecid) for 45 minutes at 37° C. Dye was removed, 20 μL of assay buffer was added, and the plate was incubated for 5 minutes at room temperature.
Ca^2+ flux was measured using the Functional Drug Screening System (FDSS7000, Hamamatsu, Japan). After establishment of a fluorescence baseline for about 3 seconds, the compounds of the present invention were added to the cells, and the response in cells was measured. 2.3 minutes later an EC20 concentration of the mGlu5 receptor agonist glutamate was added to the cells, and the response of the cells was measured for 1.9 minutes; an EC80 concentration of agonist was added and readings taken for an additional 1.7 minutes. All test compounds were dissolved and diluted to a concentration of 10 mM in 100% DMSO. Compounds were then serially diluted 1:3 in DMSO into 10 point concentration response curves, transferred to daughter plates, and further diluted into assay buffer to a 2× stock. Calcium fluorescence measures were recorded as fold over basal fluorescence; raw data was then normalized to the maximal response to glutamate. Antagonism of the agonist response of the mGlu5 receptor in the present invention was observed as a decrease in response to nearly maximal concentrations of glutamate in the presence of compound compared to the response to glutamate in the absence of compound.
The raw data file containing all time points was used as the data source in the analysis template. This was saved by the FDSS as a tab-delimited text file. Data were normalized using a static ratio function (F/F0) for each measurement of the total 360 values per well divided by each well's initial value. Data were then reduced to peak amplitudes (Max−Initial Min) using a time range that starts approximately 3 seconds prior to the glutamate EC20/EC80 addition and continues for approximately 90-120 seconds. This is sufficient time to capture the peak amplitude of the cellular calcium response. Individual amplitudes were expressed as % EMax by multiplying each amplitude by 100 and then dividing the product by the mean of the amplitudes derived from the glutamate ECMax-treated wells. IC50 values for test compounds were generated by fitting the normalized values versus the log of the test compound concentration (in mol/L) using a 4 parameter logistic equation where none of the parameters were fixed. Each of the three values collected at each concentration of test compound were weighted evenly.
For NAMs with a CRC that plateaus above 10% Glu Max, the IC50 values are reported, the compound is designated a “partial NAM” and the % Glu Max is reported. […] Compounds without measurable activity are designated as “>30,000 nM” since the top concentration of compound tested in the assay is 30 μM. […]

T1 sequence (P41594 21-1212): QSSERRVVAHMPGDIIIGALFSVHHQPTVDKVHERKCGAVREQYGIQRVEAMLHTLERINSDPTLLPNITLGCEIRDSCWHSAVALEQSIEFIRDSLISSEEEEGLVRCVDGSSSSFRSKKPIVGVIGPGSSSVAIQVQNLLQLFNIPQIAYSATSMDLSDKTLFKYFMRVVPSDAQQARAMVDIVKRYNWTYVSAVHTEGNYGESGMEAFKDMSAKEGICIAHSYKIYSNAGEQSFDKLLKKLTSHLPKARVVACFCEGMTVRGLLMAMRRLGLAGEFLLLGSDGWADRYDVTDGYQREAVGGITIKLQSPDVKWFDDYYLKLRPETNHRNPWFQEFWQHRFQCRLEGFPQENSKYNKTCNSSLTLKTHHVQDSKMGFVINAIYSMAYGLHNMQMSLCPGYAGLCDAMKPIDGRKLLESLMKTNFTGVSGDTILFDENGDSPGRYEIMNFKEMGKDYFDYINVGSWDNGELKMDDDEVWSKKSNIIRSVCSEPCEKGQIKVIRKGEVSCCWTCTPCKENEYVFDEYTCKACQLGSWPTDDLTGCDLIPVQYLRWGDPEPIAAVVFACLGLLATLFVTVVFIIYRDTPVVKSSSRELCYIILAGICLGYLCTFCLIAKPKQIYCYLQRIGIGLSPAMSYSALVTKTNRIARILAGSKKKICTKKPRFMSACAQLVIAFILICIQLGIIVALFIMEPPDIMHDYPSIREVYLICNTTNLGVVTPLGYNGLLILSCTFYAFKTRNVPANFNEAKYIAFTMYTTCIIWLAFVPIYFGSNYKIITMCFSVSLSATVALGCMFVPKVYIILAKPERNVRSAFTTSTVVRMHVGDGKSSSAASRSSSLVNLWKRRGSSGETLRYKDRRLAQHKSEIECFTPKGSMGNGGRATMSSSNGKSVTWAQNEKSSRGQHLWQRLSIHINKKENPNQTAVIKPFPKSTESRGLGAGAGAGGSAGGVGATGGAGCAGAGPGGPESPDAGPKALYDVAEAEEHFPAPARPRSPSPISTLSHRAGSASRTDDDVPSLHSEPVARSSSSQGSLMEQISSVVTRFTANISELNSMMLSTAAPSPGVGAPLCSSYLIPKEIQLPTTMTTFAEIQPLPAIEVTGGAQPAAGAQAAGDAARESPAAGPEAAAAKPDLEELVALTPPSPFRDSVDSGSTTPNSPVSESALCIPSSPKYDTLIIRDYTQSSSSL

Row | remaining activity at 30 µM (% Glu max at 30 μM) | IC50 | Structure (SMILES) | remaining activity at 30 µM
1 | 13% | > 10000 nM | Cc1csc(-c2noc(-c3cc(-c4cnccc4C)c(F)c(C)n3)n2)n1 [Compound 105, 5-(5′-fluoro-4,6′-dimethyl-[3,4′-bipyridin]-2′-yl)-3-(4-methylthiazol-2-yl)-1,2,4-oxadiazole] | –
2 | 14% | 2410 nM | Cc1nc(-c2noc(-c3cccc(F)c3)n2)cc(-c2cncc(F)c2)c1F [Compound 38, 3-(5,5′-difluoro-6′-methyl-[3,4′-bipyridin]-2′-yl)-5-(3-fluorophenyl)-1,2,4-oxadiazole] | –
3 | 11% | 917 nM | Cc1cc(-c2cncc(F)c2)cc(-c2noc(-c3nc(C)cs3)n2)n1 [Compound 72, 3-(5-fluoro-6′-methyl-[3,4′-bipyridin]-2′-yl)-5-(4-methylthiazol-2-yl)-1,2,4-oxadiazole] | –
4 | 2% | 123 nM | Cc1cc(-c2cncc(F)c2)cc(-c2nc(-c3ccc(F)cn3)no2)n1 [Compound 90, 5-(5-fluoro-6′-methyl-[3,4′-bipyridin]-2′-yl)-3-(5-fluoropyridin-2-yl)-1,2,4-oxadiazole] | –

Continued, compound first:

Row | Structure (SMILES) | remaining activity at 30 µM (% Glu max at 30 μM) | IC50 | remaining activity at 30 µM
5 | [2H]C([2H])([2H])Oc1c(-c2cncc(F)c2)cc(-c2nc(-c3ccc(F)cn3)no2)nc1C [Compound 103, 5-(5-fluoro-5′-(methoxy-d3)-6′-methyl-[3,4′-bipyridin]-2′-yl)-3-(5-fluoropyridin-2-yl)-1,2,4-oxadiazole] | 5% | 624 nM | –
6 | CCn1cc(-c2cc(-c3nnc(-c4ccc(F)cn4)o3)nc(C)c2F)cn1 [Compound 75, 2-(4-(1-ethyl-1H-pyrazol-4-yl)-5-fluoro-6-methylpyridin-2-yl)-5-(5-fluoropyridin-2-yl)-1,3,4-oxadiazole] | 2% | 591 nM | –
7 | Cc1nc(-c2noc(-c3ccc(F)cn3)n2)cc(-c2ccc(C(F)(F)F)nc2)c1F [Compound 29, 3-(5′-fluoro-6′-methyl-6-(trifluoromethyl)-[3,4′-bipyridin]-2′-yl)-5-(5-fluoropyridin-2-yl)-1,2,4-oxadiazole] | 37% | 1720 nM | –
8 | COc1cncc(-c2cc(-c3nnc(-c4ccc(F)cn4)o3)nc(C)c2F)c1 [Compound 107, 2-(5′-fluoro-5-methoxy-6′-methyl-[3,4′-bipyridin]-2′-yl)-5-(5-fluoropyridin-2-yl)-1,3,4-oxadiazole] | 2% | 336 nM | –
9 | Cc1cccc(-c2nc(-c3cc(-c4cnccc4C)c(F)c(C)n3)no2)n1 [Compound 22, 3-(5′-fluoro-4,6′-dimethyl-[3,4′-bipyridin]-2′-yl)-5-(6-methylpyridin-2-yl)-1,2,4-oxadiazole] | 3% | 1090 nM | –
10 | Cc1nc(-c2n[nH]c(-c3ccc(F)cn3)n2)cc(-c2cncc(F)c2)c1F [Compound 96, 3′,5-difluoro-6′-(5-(5-fluoropyridin-2-yl)-1H-1,2,4-triazol-3-yl)-2′-methyl-3,4′-bipyridine] | 2% | 64 nM | –
11 | Cc1ccncc1-c1cc(-c2noc(-c3cnccn3)n2)nc(C)c1F [Compound 94, 3-(5′-fluoro-4,6′-dimethyl-[3,4′-bipyridin]-2′-yl)-5-(pyrazin-2-yl)-1,2,4-oxadiazole] | 37% | > 10000 nM | –
12 | Cc1nc(-c2nnc(-c3cccnc3)o2)cc(-c2cncc(F)c2)c1F [Compound 80, 2-(5,5′-difluoro-6′-methyl-[3,4′-bipyridin]-2′-yl)-5-(pyridin-3-yl)-1,3,4-oxadiazole] | – | 3340 nM | 58%
13 | COc1cc(-c2cc(-c3nnc(-c4ccc(F)cn4)o3)nc(C)c2F)ccn1 [Compound 108, 2-(5-fluoro-2′-methoxy-6-methyl-[4,4′-bipyridin]-2-yl)-5-(5-fluoropyridin-2-yl)-1,3,4-oxadiazole] | 1% | 94 nM | –
